{"source": "patent US10351500B2", "about": "“Method of using of dihydro-resveratrol or its stilbenoid derivatives and/or chemical variants as antimicrobial agents” (Hong Kong Baptist University, priority 2015, dated 2019)", "key": {"[1]": {"tested_on": "Trichophyton mentagrophytes", "test": "anti-fungal growth inhibition, T. mentagrophytes", "type": "cell-based", "conditions": "Trichophyton mentagrophytes, 168 h, T. mentagraphytes, one week, 30° C., OD 510 nm", "procedure": "(§1) Evaluation of anti-fungal activity. In a single well of the 96-well microplate, 10 μL of the testing compound is added into 190 μL of growth medium (Difco™ YM) containing an overnight culture of Trichophyton rubrum or Trichophyton mentagrophytes at a density of approximately 5×10^5 CFU. The testing compounds include dihydro-resveratrol and DR1 to DR11. Wells incubated with 10 μL 0.5% DMSO only (i.e. no testing compound) are served as the experimental control of fungal growth whilst those incubated with growth medium only (i.e. no fungi) are served as the negative control. […] The percentage of growth inhibition of T. mentagrophytes by the different concentrations of testing compounds is shown in Table 10 whilst the percentage of growth inhibition of T. rubrum is shown in Table 11. The images of T. mentagrophytes culture are captured post treatment of dihydro-resveratrol (100 μM) and DR8 (100 μM) when compared to the growth of experimental control and negative control (FIG. 30)."}, "Streptococcus sobrinus": {"tested_on": "Streptococcus sobrinus", "test": "anti-bacterial growth inhibition, S. sobrinus", "type": "cell-based", "conditions": "Streptococcus sobrinus, S. sobrinus, 10 hours, 30° C., OD 600 nm", "procedure": "(§2) Evaluation of anti-bacterial activity. In a single well of the 96-well microplate, 10 μL of the testing compound is added into 190 μL of growth medium growth medium (BBL™ Brain Heart Infusion) containing an overnight culture of Streptococcus mutans or Streptococcus sobrinus at a density of approximately 5×10^5 CFU. The testing compounds include dihydro-resveratrol and DR1 to DR11. Wells incubated with 10 μL 0.5% DMSO only (i.e. no testing compound) are served as the experimental control of bacterial growth whilst those incubated with growth medium only (i.e. no bacteria) are served as the negative control. […] The percentage of growth inhibition of S. mutans by the different concentrations of testing compounds is shown in Table 12 whereas the percentage of growth inhibition of S. sobrinus is shown in Table 13. The images of S. mutans culture are captured post treatment of dihydro-resveratrol (100 μM) and DR8 (100 μM) when compared to the growth of experimental control and negative control (FIG. 31)."}, "pancreatic acinar cells": {"tested_on": "pancreatic acinar cells", "type": "cell-based", "conditions": "rat, 24 h", "procedure": "Functional intact acini were dissociated from pancreatic tissue using collagenase digestion with mild shearing forces. Acini were cultured in Dulbecco's modification of Eagle's medium (GIBCO) supplemented with 5% fetal bovine serum (GIBCO), 1% penicillin-streptomycin (GIBCO) in a 5% CO2, 95% air humidified atmosphere at 37° C. […] MTT reagent was added to the cells at the end of the 24-hour treatment period. After a 3-hour reaction time, MTT products were dissolved in DMSO and absorbance at 570 nm was taken."}, "[2]": {"tested_on": "skin color at the arms of individual human subjects", "test": "skin colorimeter ITA° measurement after topical stilbenoid solution", "type": "in vivo", "procedure": "To determine the skin color of the individual human subjects, the initial skin conditions at the arms of the individuals are tested by the skin colorimeter MPA 5 on day 0. The individual typology angle (ITA°) is calculated by the colorimeter based on the luminance (L*) and yellow-blue component (b*) values. The greater the ITA° value, the greater the skin whiteness [S. Del Bino and F. Bernerd. Variations in skin colour and the biological consequences of ultraviolet radiation exposure. British Journal of Dermatology 2013; 169 (Suppl. 3), 33-40]. In fact, skin colors are classified into 6 major divisions: very light, light, intermediate, tan, brown and dark as listed in Table 4. Two areas (2 cm×2 cm each) are selected as treated areas whereas regions surrounding the treated areas on the arms are regarded as control areas. A volume of 200 μL of the testing stilbenoids (2% by weight dissolved in ethanol) is applied to the designated area twice a day, day and night. At the end of the first week (day 7), individuals are tested with the skin colorimeter for recording the data about using the stilbenoids for 7 days. Again, at the end of the second week (day 14), individuals are tested with the skin colorimeter for recording the data about using the stilbenoids for 14 days."}, "Trichophyton rubrum": {"tested_on": "Trichophyton rubrum", "test": "anti-fungal growth inhibition, T. rubrum", "type": "cell-based", "conditions": "Trichophyton rubrum, 168 h, T. rubrum, one week, 30° C., OD 510 nm", "procedure": "as §1"}, "Streptococcus mutans": {"tested_on": "Streptococcus mutans", "test": "anti-bacterial growth inhibition, S. mutans", "type": "cell-based", "conditions": "Streptococcus mutans, S. mutans, 10 hours, 30° C., OD 600 nm", "procedure": "as §2"}, "[3]": {"conditions": "25 μM, read-out: Inhibition rate (25 μM)"}, "[4]": {"conditions": "50 μM, read-out: Inhibition rate (50 μM)"}, "[5]": {"conditions": "100 μM, read-out: Inhibition rate (100 μM)"}}, "data": [{"smiles": "Oc1ccc(/C=C/c2cc(O)cc(O)c2)cc1", "note": "[Trans-resveratrol, trans-resveratrol, reference compound]", "values": [{"measurement": "inhibition at 25 µM", "setting": "[1]; [3]", "result": 5.35, "unit": "%"}, {"measurement": "inhibition at 50 µM", "setting": "[1]; [4]", "result": 13.9, "unit": "%"}, {"measurement": "inhibition at 100 µM", "setting": "[1]; [5]", "result": 32.4, "unit": "%"}, {"measurement": "inhibition at 25 µM", "setting": "Streptococcus sobrinus; [3]", "result": 6.71, "unit": "%"}, {"measurement": "inhibition at 50 µM", "setting": "Streptococcus sobrinus; [4]", "result": 1.17, "unit": "%"}, {"measurement": "inhibition at 100 µM", "setting": "Streptococcus sobrinus; [5]", "result": 2.46, "unit": "%"}, {"measurement": "cytotoxicity (MTT, mitochondrial metabolic rates)", "setting": "pancreatic acinar cells", "result": "roughly 250 μM"}, {"measurement": "whitening effect on skin", "setting": "[2]; 2% by weight in ethanol, topical twice a day, most individuals", "result": "Overt whitening effect"}, {"measurement": "ITA° measurement", "setting": "[2]; Individual No. 1, day 7, 2% solution topical", "result": "47.7 ± 1.155", "unit": "°"}, {"measurement": "ITA° measurement", "setting": "[2]; Individual No. 1, day 14, 2% solution topical", "result": "46.4 ± 0.548", "unit": "°"}, {"measurement": "ITA° measurement", "setting": "[2]; Individual No. 2, day 7, 2% solution topical", "result": "39.2 ± 2.564", "unit": "°"}, {"measurement": "ITA° measurement", "setting": "[2]; Individual No. 2, day 14, 2% solution topical", "result": "44.8 ± 2.871", "unit": "°"}, {"measurement": "ITA° measurement", "setting": "[2]; Individual No. 3, day 7, 2% solution topical", "result": "38.0 ± 1.732", "unit": "°"}, {"measurement": "ITA° measurement", "setting": "[2]; Individual No. 3, day 14, 2% solution topical", "result": "36.2 ± 1.789", "unit": "°"}, {"measurement": "ITA° measurement", "setting": "[2]; Individual No. 4, day 7, 2% solution topical", "result": "22.4 ± 1.715", "unit": "°"}, {"measurement": "ITA° measurement", "setting": "[2]; Individual No. 4, day 14, 2% solution topical", "result": "29.4 ± 1.342", "unit": "°"}, {"measurement": "ITA° measurement", "setting": "[2]; Individual No. 5, day 7, 2% solution topical", "result": "26.6 ± 1.159", "unit": "°"}, {"measurement": "ITA° measurement", "setting": "[2]; Individual No. 5, day 14, 2% solution topical", "result": "34.0 ± 2.168", "unit": "°"}, {"measurement": "ITA° measurement", "setting": "[2]; Individual No. 6, day 7, 2% solution topical", "result": "28.2 ± 2.718", "unit": "°"}, {"measurement": "ITA° measurement", "setting": "[2]; Individual No. 6, day 14, 2% solution topical", "result": "41.8 ± 3.372", "unit": "°"}, {"measurement": "ITA° measurement", "setting": "[2]; Individual No. 7, day 7, 2% solution topical", "result": "20.6 ± 1.140", "unit": "°"}, {"measurement": "ITA° measurement", "setting": "[2]; Individual No. 7, day 14, 2% solution topical", "result": "20.4 ± 0.578", "unit": "°"}, {"measurement": "ITA° measurement", "setting": "[2]; Individual No. 8, day 7, 2% solution topical", "result": "14.0 ± 1.232", "unit": "°"}, {"measurement": "ITA° measurement", "setting": "[2]; Individual No. 8, day 14, 2% solution topical", "result": "9.6 ± 1.342", "unit": "°"}, {"measurement": "ITA° measurement", "setting": "[2]; Individual No. 9, day 7, 2% solution topical", "result": "−7.2 ± 1.789", "unit": "°"}, {"measurement": "ITA° measurement", "setting": "[2]; Individual No. 9, day 14, 2% solution topical", "result": "−7.4 ± 1.140", "unit": "°"}, {"measurement": "inhibition at 25 µM", "setting": "Trichophyton rubrum; [3]", "result": 6.56, "unit": "%"}, {"measurement": "inhibition at 50 µM", "setting": "Trichophyton rubrum; [4]", "result": 11.6, "unit": "%"}, {"measurement": "inhibition at 100 µM", "setting": "Trichophyton rubrum; [5]", "result": 21.6, "unit": "%"}, {"measurement": "inhibition at 25 µM", "setting": "Streptococcus mutans; [3]", "result": 8.91, "unit": "%"}, {"measurement": "inhibition at 50 µM", "setting": "Streptococcus mutans; [4]", "result": 5.77, "unit": "%"}, {"measurement": "inhibition at 100 µM", "setting": "Streptococcus mutans; [5]", "result": 3.83, "unit": "%"}]}]}
